Earlier results on 1 substance are cited in patent publication US20050180940A1, “Protect against hair loss” (priority 2004, published 2005).

This data set relates to common male-pattern baldness. Particulars: two daily topical applications, person, after 3-4 weeks.

As to sucralfate, the “Effect on common male-pattern baldness (hair appearance)” value is recorded as “appearance of hair in the otherwise bald lateral-frontal areas in the scalp”.
